Consider 23 molecules from US20120095055A1, “HEXAHYDROCYCLOPENTYL[f]INDAZOLE 5-HYDROXYMETHYL ETHANOLS AND DERIVATIVES THEREOF AS SELECTIVE GLUCOCORTICOID RECEPTOR MODULATORS” (Merck Sharp & Dohme, Corp., priority 2009, published 2012).

The structures appear in SMILES notation.

The experiment concerns the target T1, glucocorticoid receptor (GR) (Homo sapiens, UniProt P04150).
T1 construct: endogenous in cells; host or cells: HeLa (ATCC) cell lysate supernatant
T1 sequence (P04150 1-777): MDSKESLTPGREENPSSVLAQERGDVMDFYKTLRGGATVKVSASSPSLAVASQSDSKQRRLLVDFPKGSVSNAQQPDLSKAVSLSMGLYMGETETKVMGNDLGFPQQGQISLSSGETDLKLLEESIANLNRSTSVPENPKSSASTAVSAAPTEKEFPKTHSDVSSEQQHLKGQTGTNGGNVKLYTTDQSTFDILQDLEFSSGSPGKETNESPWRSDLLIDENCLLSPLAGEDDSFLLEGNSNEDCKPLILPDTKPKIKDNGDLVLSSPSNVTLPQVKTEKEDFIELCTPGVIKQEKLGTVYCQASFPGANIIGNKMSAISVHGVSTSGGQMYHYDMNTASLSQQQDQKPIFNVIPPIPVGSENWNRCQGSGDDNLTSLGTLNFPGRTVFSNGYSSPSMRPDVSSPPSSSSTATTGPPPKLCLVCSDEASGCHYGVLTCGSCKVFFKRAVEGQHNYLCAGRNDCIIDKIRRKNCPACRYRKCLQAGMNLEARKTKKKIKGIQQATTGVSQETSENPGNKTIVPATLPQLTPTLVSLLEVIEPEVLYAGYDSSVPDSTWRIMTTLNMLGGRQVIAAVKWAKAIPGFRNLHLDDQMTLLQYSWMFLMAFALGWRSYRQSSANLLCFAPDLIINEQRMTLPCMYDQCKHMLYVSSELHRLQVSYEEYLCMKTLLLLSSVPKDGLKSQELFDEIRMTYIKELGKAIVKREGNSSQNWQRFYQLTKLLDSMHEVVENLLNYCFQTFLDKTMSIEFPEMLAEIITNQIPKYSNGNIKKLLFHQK
Kind of experiment: GR Ligand Binding Assay (3H-dexamethasone displacement, HeLa cell lysate). The settings on record: 3H-DEX trace, DEX as reference, read-out: GR BIND Ki. As to the method: Binding Buffer: TEGM (10 mM Tris-HCl, 1 mM EDTA, 10% glycerol, 1 mM beta-mecaptoethanol, 10 mM Sodium Molybdate, pH 7.2)
Dexmethasone-methyl-^3H, (DEX*); (Amersham cat# TRK645) Dexamethasone(DEX) (Sigma, cat# D1756):
Cells (Hall R. E., et al., European Journal of Cancer, 30A: 484-490 (1994)) HeLa (ATCC) cultured in RPMI 1640 (Gibco 11835-055) containing 20 mM Hepes, 4 mM L-glu, 10 ug/ml of human insulin (Sigma, I-0259), 10% FBS and 20 ug/ml of Gentamicin (Gibco#15710-072) are rinsed twice in PBS. Phenol red-free Trypsin-EDTA is diluted in the same PBS 1:10. The cell layers are rinsed with 1× Trypsin, extra Trypsin is poured out, and the cell layers are incubated at 37° C. for ˜2 min. The flask is tapped and checked for signs of cell detachment. Once the cells begin to slide off the flask, the complete media is added. The cells are counted at this point, then diluted to the appropriate concentration and split into flasks or dishes for further culturing (Usually 1:3 to 1:6 dilution).
When the cells are 70 to 85% confluent, they are detached as described above, and collected by centrifuging at 1000 g for 10 minutes at 4° C. The cell pellet is washed twice with TEGM (10 mM Tris-HCl, 1 mM EDTA, 10% glycerol, 1 mM beta-mercaptoethanol, 10 mM Sodium Molybdate, pH 7.2). After the final wash, the cells are resuspended in TEGM at a concentration of 10^7 cells/mL. The cell suspension is snap frozen in liquid nitrogen or ethanol/dry ice bath and transferred to −80° C. freezer on dry ice. Before setting up the binding assay, the frozen samples are left on ice-water to just thaw (˜1 hr). Then the samples are centrifuged at 12,500 g to 20,000 g for 30 min at 4° C. The supernatant is used to set-up assay right away. If using 50 μL of supernatant, the test compound can be prepared in 50 μL of the TEGM buffer.
1×TEGM buffer is prepared, and the isotope-containing assay mixture is prepared in the following order: EtOH (2% final concentration in reaction), ^3H-DEX (Amersham Biosciences) and 1×TEGM. [e.g. For 100 samples, 200 μL (100×2) of EtOH+4.25 μL of 1:10 ^3H—Dex stock+2300 μL (100×23) 1×TEGM]. The compound is serially diluted, e.g., if starting final conc. is 1 μM, and the compound is in 25 μL of solution, for duplicate samples, 75 μL of 4×1 μM solution is made and 3 μL of 100 μM is added to 72 μL of buffer, and 1:5 serial dilution.
25 μL, of 3H-DEX (6 nM) trace and 25 μL compound solution are first mixed together, followed by addition of 50 μL receptor solution. The reaction is gently mixed, spun briefly at about 200 rpm and incubated at 4° C. overnight. 100 μL of 50% HAP slurry is prepared and added to the incubated reaction which is then vortexed and incubated on ice for 5 to 10 minutes. The reaction mixture is vortexed twice more to resuspend HAP while incubating reaction. The samples in 96-well format are then washed in wash buffer using The FilterMate™ Universal Harvester plate washer (Packard). The washing process transfers HAP pellet containing ligand-bound expressed receptor to Unifilter-96 GF/B filter plate (Packard). The HAP pellet on the filter plate is incubated with 50 μL of MICROSCINT (Packard) scintillint for 30 minutes before being counted on the TopCount microscintillation counter (Packard). IC50s are calculated using DEX as a reference.
Regarding `COc1cccnc1C(O)C[C@]1(CO)CCC2=Cc3c(cnn3-c3ccc(F)cc3)C[C@@]21C` (single isomer, unassigned) [Example 21a], the Ki came out at 7.6 nM.

For `COc1cccnc1C(O)C[C@]1(CO)CCC2=Cc3c(cnn3-c3ccc(F)cc3)C[C@@]21C` (single isomer, unassigned) [Example 21b], the Ki is 3.7 nM.

For `C[C@]12Cc3cnn(-c4ccc(F)cc4)c3C=C1CC[C@@]2(CO)CC(O)c1ccc(F)cn1` (single isomer, unassigned) [Example 22a], the Ki is 2.3 nM.

On to `C[C@]12Cc3cnn(-c4ccc(F)cc4)c3C=C1CC[C@@]2(CO)CC(O)c1ccc(F)cn1` (single isomer, unassigned) [Example 22b], for which the Ki is 5.1 nM.

As to `C[C@]12Cc3cnn(-c4ccccc4)c3C=C1CC[C@@]2(CO)CC(O)c1ccccn1` (single isomer, unassigned) [Example 23a], the Ki amounted to 7.7 nM.

Consider `C[C@]12Cc3cnn(-c4ccccc4)c3C=C1CC[C@@]2(CO)CC(O)c1ccccn1` (single isomer, unassigned) [Example 23b], for which the Ki was 3.3 nM.

As for `COc1ccc(C(O)C[C@]2(CO)CCC3=Cc4c(cnn4-c4ccc(F)cc4)C[C@@]32C)nc1` (single isomer, unassigned) [Example 24a], the Ki is 3.1 nM.

Regarding `COc1ccc(C(O)C[C@]2(CO)CCC3=Cc4c(cnn4-c4ccc(F)cc4)C[C@@]32C)nc1` (single isomer, unassigned) [Example 24b], the inhibition constant Ki is 7.5 nM.

On to `CC(O)(C[C@]1(CO)CCC2=Cc3c(cnn3-c3ccc(F)cc3)C[C@@]21C)c1cccnc1` (single isomer, unassigned) [Example 25a], for which the Ki stood at 26.3 nM.

`CC(O)(C[C@]1(CO)CCC2=Cc3c(cnn3-c3ccc(F)cc3)C[C@@]21C)c1cccnc1` (single isomer, unassigned) [Example 25b]: the Ki was determined as 21.9 nM.

As to `COc1cccnc1C(O)C[C@]1(CO)CCC2=Cc3c(cnn3-c3cccc(F)c3)C[C@@]21C` (single isomer, unassigned) [Example 26a], the Ki was found to be 8.6 nM.

Turning to `COc1cccnc1C(O)C[C@]1(CO)CCC2=Cc3c(cnn3-c3cccc(F)c3)C[C@@]21C` (single isomer, unassigned) [Example 26b], the inhibitory constant (Ki) was determined as 35.5 nM.

Turning to `C[C@]12Cc3cnn(-c4cccc(F)c4)c3C=C1CC[C@@]2(CO)CC(O)c1cccnc1` (single isomer, unassigned) [Example 27a], the Ki worked out at 13.9 nM.

`C[C@]12Cc3cnn(-c4cccc(F)c4)c3C=C1CC[C@@]2(CO)CC(O)c1cccnc1` (single isomer, unassigned) [Example 27b]: the Ki came out at 13.4 nM.

Take `C[C@]12Cc3cnn(-c4ccc(F)cc4)c3C=C1CC[C@@]2(CO)CC(O)C(F)(F)F` (single isomer, unassigned) [Example 28a]: the Ki was 8.3 nM.

`C[C@]12Cc3cnn(-c4ccc(F)cc4)c3C=C1CC[C@@]2(CO)CC(O)C(F)(F)F` (single isomer, unassigned) [Example 28b]: the Ki stood at 5.4 nM.

Turning to `C[C@]12Cc3cnn(-c4ccccc4)c3C=C1CC[C@@]2(CO)CC(O)c1cccnc1` (single isomer, unassigned) [Example 29a], the Ki worked out at 11.8 nM.

For `C[C@]12Cc3cnn(-c4ccccc4)c3C=C1CC[C@@]2(CO)CC(O)c1cccnc1` (single isomer, unassigned) [Example 29b], the Ki is 8.2 nM.

On to `C[C@]12Cc3cnn(-c4ccc(F)cc4)c3C=C1CC[C@@]2(CO)CC(O)c1ccccc1F` (stereo partly drawn) [Example 4, 1-(2-fluorophenyl)-2-[(4αS,5R)-1-(4-fluorophenyl)-5-(hydroxymethyl)-4α-methyl-1,4,4α,5,6,7-hexahydrocyclopenta[f]indazol-5-yl]ethanol], for which the Ki came out at 0.9 nM.

Turning to `C[C@]12Cc3cnn(-c4ccc(F)cc4)c3C=C1CC[C@@]2(CO)CC(O)c1cccc(Cl)c1` (stereo partly drawn) [Example 8, 1-(3-chlorophenyl)-2-[(4αS,5R)-1-(4-fluorophenyl)-5-(hydroxymethyl)-4α-methyl-1,4,4α,5,6,7-hexahydrocyclopenta[f]indazol-5-yl]ethanol], the inhibition constant (Ki) worked out at 1.2 nM.

Take `C[C@]12Cc3cnn(-c4ccc(F)cc4)c3C=C1CC[C@@]2(CO)CC(O)c1cc(F)cc(F)c1` (stereo partly drawn) [Example 9, 1-(3,5-difluorophenyl)-2-[(4αS,5R)-1-(4-fluorophenyl)-5-(hydroxymethyl)-4α-methyl-1,4,4α,5,6,7-hexahydrocyclopenta[f]indazol-5-yl]ethanol]: the Ki was 2.1 nM.

As for `C[C@]12Cc3cnn(-c4ccc(F)cc4)c3C=C1CC[C@@]2(CO)CC1OC(=O)c2ccccc21` (stereo partly drawn) [Example 11, 3-{[(4αS,5R)-1-(4-fluorophenyl)-5-(hydroxymethyl)-4α-methyl-1,4,4α,5,6,7,7a,8-octahydrocyclopenta[f]indazol-5-yl]methyl}-2-benzofuran-1(3H)-one], the Ki worked out at 19.2 nM.

With `Cc1ccc(C(O)C[C@]2(CO)CCC3=Cc4c(cnn4-c4ccc(F)cc4)C[C@@]32C)nc1` (stereo partly drawn) [Example 16, 2-[(4αS,5R)-1-(4-fluorophenyl)-5-(hydroxymethyl)-4α-methyl-1,4,4α,5,6,7-hexahydrocyclopenta[f]indazol-5-yl]-1-(5-methylpyridin-2-yl)ethanol], the Ki was determined as 3.7 nM.

As a reminder, the Ki is a measure of affinity in units of concentration, obtained from inhibition or displacement.
